We go through one compound from PMC5997768 (2018).

In this assay the test system is rats with CCI. Particulars: rat, in vivo, iv.

On to `C=CC[N+]1(C)CC[C@]23c4c5ccc(O)c4O[C@H]2C(=O)CC[C@@]3(O)[C@H]1C5` (some centres unmarked) [NLXM, naloxone methiodide], for which the “Effect on FF3-induced analgesia (PPT) in ipsilateral limbs” value is reported as “abolished” and the “Effect on PPT in contralateral paws” value is “No changes were observed”.
